Laboratory results: PMC3690439 (Nuclear medicine and biology, 2012)
Like-named read-outs stand apart in the source and are kept apart here.

Legend:
P-glycoprotein (Pgp) = P-glycoprotein (Pgp) (Homo sapiens, UniProt P08183); experiment: Rhodamine 123 efflux inhibition assay in CCRFvcr1000 cells; assay type: cell-based
[1] = target: P-glycoprotein (Pgp) at the blood-brain barrier (Mus musculus, UniProt P21447); details: FVB wild-type mice; cited from earlier work
[2] = test system: P-glycoprotein (Pgp) at the blood-brain barrier; details: Mdr1a/b(-/-) mice; cited from earlier work
EMT6Ar1.0 tumors = details: murine tumor model; cited from earlier work

Chain of P-glycoprotein (Pgp) (P08183 whole entry): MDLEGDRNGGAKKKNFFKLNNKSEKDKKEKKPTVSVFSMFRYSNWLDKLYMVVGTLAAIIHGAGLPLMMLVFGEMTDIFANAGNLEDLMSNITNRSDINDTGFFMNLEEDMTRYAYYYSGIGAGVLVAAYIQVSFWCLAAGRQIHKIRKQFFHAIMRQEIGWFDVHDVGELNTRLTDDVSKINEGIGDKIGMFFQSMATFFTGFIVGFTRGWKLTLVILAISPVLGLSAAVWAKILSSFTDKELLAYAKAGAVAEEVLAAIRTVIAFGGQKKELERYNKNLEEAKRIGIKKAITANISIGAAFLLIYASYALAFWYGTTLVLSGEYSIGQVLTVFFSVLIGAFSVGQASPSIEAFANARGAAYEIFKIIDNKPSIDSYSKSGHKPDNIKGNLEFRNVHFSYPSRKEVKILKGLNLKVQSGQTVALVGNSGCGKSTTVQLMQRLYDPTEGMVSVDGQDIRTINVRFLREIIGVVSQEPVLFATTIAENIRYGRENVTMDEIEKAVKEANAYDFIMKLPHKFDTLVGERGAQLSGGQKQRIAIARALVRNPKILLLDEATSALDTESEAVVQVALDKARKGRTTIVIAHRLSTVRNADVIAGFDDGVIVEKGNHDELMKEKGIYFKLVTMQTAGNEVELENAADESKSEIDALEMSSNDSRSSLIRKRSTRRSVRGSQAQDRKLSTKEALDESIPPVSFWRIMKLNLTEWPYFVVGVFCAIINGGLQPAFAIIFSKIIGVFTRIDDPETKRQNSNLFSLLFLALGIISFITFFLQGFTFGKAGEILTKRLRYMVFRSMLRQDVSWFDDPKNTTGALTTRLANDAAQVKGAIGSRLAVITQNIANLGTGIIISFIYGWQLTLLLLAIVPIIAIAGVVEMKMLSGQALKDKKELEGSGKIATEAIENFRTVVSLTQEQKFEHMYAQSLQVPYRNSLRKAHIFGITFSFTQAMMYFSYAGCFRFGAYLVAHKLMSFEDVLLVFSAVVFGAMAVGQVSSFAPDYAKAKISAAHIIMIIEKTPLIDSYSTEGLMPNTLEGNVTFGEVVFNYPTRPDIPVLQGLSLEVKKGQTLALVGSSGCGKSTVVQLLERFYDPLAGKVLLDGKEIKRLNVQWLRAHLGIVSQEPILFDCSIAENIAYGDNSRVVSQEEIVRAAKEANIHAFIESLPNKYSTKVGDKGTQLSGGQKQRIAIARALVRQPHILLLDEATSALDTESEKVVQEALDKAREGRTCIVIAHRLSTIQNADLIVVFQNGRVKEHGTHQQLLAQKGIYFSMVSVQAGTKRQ
Chain of P-glycoprotein (Pgp) at the blood-brain barrier (Mus musculus, UniProt P21447) (P21447 whole entry): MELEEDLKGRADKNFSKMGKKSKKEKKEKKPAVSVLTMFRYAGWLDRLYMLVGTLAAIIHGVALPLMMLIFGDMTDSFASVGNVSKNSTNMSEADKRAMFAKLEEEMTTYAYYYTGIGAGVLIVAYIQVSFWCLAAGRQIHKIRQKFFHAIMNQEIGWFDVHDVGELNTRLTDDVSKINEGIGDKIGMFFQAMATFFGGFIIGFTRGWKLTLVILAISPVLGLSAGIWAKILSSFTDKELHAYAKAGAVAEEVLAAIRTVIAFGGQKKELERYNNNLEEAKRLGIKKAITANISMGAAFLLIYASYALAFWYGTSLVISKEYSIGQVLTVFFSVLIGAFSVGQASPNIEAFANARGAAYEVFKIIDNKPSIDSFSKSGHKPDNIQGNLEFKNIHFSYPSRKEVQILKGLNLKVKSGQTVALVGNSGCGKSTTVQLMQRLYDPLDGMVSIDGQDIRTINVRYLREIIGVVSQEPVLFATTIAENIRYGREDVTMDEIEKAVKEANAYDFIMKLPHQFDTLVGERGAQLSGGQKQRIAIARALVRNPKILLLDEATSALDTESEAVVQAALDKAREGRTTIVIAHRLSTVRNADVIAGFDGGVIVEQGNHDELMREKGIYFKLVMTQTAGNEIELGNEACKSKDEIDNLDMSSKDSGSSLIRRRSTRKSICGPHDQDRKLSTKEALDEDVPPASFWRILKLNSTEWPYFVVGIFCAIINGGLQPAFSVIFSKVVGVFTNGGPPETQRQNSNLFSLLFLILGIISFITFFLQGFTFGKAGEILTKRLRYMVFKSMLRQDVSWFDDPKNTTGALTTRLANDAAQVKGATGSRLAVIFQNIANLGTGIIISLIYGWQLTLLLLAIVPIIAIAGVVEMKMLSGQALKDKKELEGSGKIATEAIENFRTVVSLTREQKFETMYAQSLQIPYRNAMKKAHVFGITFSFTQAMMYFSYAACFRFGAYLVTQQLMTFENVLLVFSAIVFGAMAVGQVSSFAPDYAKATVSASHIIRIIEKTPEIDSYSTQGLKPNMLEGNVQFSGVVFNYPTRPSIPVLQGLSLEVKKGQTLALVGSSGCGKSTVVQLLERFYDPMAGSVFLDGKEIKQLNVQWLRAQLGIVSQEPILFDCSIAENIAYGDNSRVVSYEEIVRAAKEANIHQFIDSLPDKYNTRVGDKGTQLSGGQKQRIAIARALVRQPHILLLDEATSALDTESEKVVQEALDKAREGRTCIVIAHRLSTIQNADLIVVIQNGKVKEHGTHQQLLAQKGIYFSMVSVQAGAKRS

## COc1ccc(-c2ccc(CN3CCc4cc(OC)c(OC)cc4C3)cc2)cc1 [MC113]
P-glycoprotein (Pgp); read-out: IC50 for inhibition of Pgp-mediated rhodamine 123 efflux, CCRFvcr1000 cells, mean±SD, at least 3 independent experiments in duplicate
  IC50: 375 ± 60 nM

## COc1cc2c(cc1OC)CN(CCc1ccc(NC(=O)c3cc(OC)c(OC)cc3NC(=O)c3cnc4ccccc4c3)cc1)CC2 [[^11C]tariquidar]
[1]
  mean brain AUC0-60: 9 ± 1 min
[2]
  mean brain AUC0-60: 17 ± 2 min
EMT6Ar1.0 tumors
  higher AUC0-60 in EMT6Ar1.0 than in EMT6 tumors: approximately 60%

## COc1cc2c(cc1OC)CN(CCc1ccc(NC(=O)c3cc(OC)c(OC)cc3NC(=O)c3cnc4ccccc4c3)cc1)CC2 [tariquidar]
P-glycoprotein (Pgp)
  IC50: 8.5 ± 2.5 nM
